“Also recorded” adds a separate entry of the source.
What was measured:
[1] = test system: actin filaments underlying the plasma membrane (cortex actin); conditions: inhibits HSPG-mediated endocytosis; cited from earlier work
[2] = test system: SARS-CoV-2 pseudotyped particles; format: cell-based; conditions: read-out: IC50, anti-pseudotyped particle activity
[3] = test system: cortex actin filaments in U2OS cells; format: cell-based
[4] = test system: HSPG-mediated endocytosis of α-Synuclein fibrils in HEK293T cells; assay: α-Synuclein fibrils uptake assay; format: cell-based; conditions: among the top 10 inhibitors
[5] = test system: SARS-CoV-2; conditions: among drugs of the repurposing screen; cited from earlier work

Row | SMILES | Disruption of actin filaments underlying the plasma membrane (cortex actin) [1] | Inhibition of the entry of pHrodo-labeled α-Synuclein fibrils (ranking in words) [4] | other results
1 | O=C1/C(=C/c2ccccc2)C[C@@]2(O)[C@H]3Cc4ccc(O)c5c4[C@@]2(CCN3CC2CC2)[C@H]1O5 [BNTX] | effectively disrupt the actin filaments |  | 
2 | CC(C)S(=O)(=O)c1oc(-c2ccc(F)cc2)nc1S(=O)(=O)c1ccccc1 [NCGC00115755-02] |  |  | IC50 [2]: 5 µM; Effect on actin filaments (phalloidin-Alexa488 staining) [3]: dose-dependent disruption of cortex actin filaments; also recorded: causes the disassembly of actin stress fiber and generates large actin aggregates
3 | O=C(Oc1cccc2cccnc12)c1ccccc1 [NCGC00159478] |  | highest inhibition | 
4 | CN(C)CCNC(=O)c1nc(-c2ccc(N3CCN(C)CC3)cc2)cc2c1ccn2C [NCGC00411718] |  | highest inhibition | 
5 | CCN(CC)CCNC(=O)c1c(C)[nH]c(/C=C2\C(=O)Nc3ccc(F)cc32)c1C [Sunitinib] | effectively disrupt the actin filaments |  | 
6 | O=C1c2c(O)ccc(O)c2C(=O)c2c(NCCNCCO)ccc(NCCNCCO)c21 [mitoxantrone] |  |  | Antiviral activity in vitro (in words) [5]: most potent antiviral activity in vitro

Source: paper PMC9016773 (Journal of chemical information and modeling, 2022)
